Laboratory results taken from PubChem BioAssay (NCI).
Several values for one entry are separate records, joined by “and”; a condition that tells them apart may be missing. Identical values can stand only once.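 Five compound concentrations were applied to cells in 96-well plates for 48 hours; endpoints were derived by simple linear interpolation of the resulting dose-response curve. Here, GI50 denotes the concentration required for 50% inhibition of growth. TGI: total growth inhibition.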

What was measured:
Assay in all cases: growth of human tumour cells (NCI), 48 h
[1] = system: HOP-92 NSCLC
[2] = system: SNB-19 CNS
[3] = system: SR leukemia
[4] = system: SF-539 CNS
[5] = system: CAKI-1 renal
[6] = system: RPMI-8226 leukemia
[7] = system: HCC-2998 colon
[8] = system: HOP-62 NSCLC
[9] = system: UO-31 renal
[10] = system: OVCAR-3 ovarian
[11] = system: OVCAR-4 ovarian
[12] = system: HL-60(TB) leukemia
[13] = system: HCT-15 colon
[14] = system: TK-10 renal
[15] = system: ACHN renal
[16] = system: NCI-H460 lung
[17] = system: UACC-257 melanoma
[18] = system: K-562 leukemia
[19] = system: DU-145 prostate
[20] = system: EKVX NSCLC
[21] = system: NCI-H522 lung
[22] = system: IGROV1 ovarian
[23] = system: MCF7 breast
[24] = system: 786-0 renal
[25] = system: SF-268 CNS
[26] = system: T-47D breast
[27] = system: M14 melanoma
[28] = system: SNB-75 CNS
[29] = system: UACC-62 melanoma
[30] = system: NCI-H226 lung

Compound: O=C(c1ccc(/C=C/c2n[nH]c3ccccc23)cc1)N1CCNCC1
- TGI [1]: > 10 µM and 7.63 µM
- GI50 [2]: 4.26 µM and 15.8 µM
- TGI [2]: > 10 µM and 33.2 µM
- GI50 [3]: 1.85 µM and 0.407 µM
- TGI [3]: 4.23 µM and 10.3 µM
- GI50 [4]: 2.18 µM and 1.83 µM
- TGI [4]: 6.74 µM and 9.92 µM
- GI50 [5]: 4.96 µM and 1.35 µM
- TGI [5]: > 10 µM and 9.11 µM
- GI50 [6]: 4.21 µM and 10.5 µM
- TGI [6]: > 10 µM and 47.3 µM
- GI50 [7]: > 10 µM and 12.1 µM
- TGI [7]: > 10 µM and 34.1 µM
- GI50 [8]: > 10 µM and 3.63 µM
- TGI [8]: > 10 µM and 19.3 µM
- GI50 [9]: 2.94 µM and 2.95 µM
- TGI [9]: > 10 µM and 15.1 µM
- GI50 [10]: 9.32 µM and 8.01 µM
- TGI [10]: > 10 µM and 24 µM
- GI50 [11]: > 10 µM and 3.82 µM
- TGI [11]: > 10 µM and 26 µM
- GI50 [12]: 1.94 µM and 4.15 µM
- TGI [12]: 4.45 µM and 22.3 µM
- GI50 [13]: 1.5 µM and 3.47 µM
- GI50 [14]: > 10 µM and 5.29 µM
- TGI [14]: > 10 µM and 20.2 µM
- GI50 [15]: > 10 µM and 4.05 µM
- TGI [15]: > 10 µM and 25.3 µM
- GI50 [16]: 1.87 µM and 1.09 µM
- TGI [16]: 3.58 µM and 12.7 µM
- GI50 [17]: 1.76 µM and 7.57 µM
- TGI [17]: 3.3 µM and 21 µM
- GI50 [18]: 1.45 µM and 1.37 µM
- TGI [18]: 3.58 µM and 21.5 µM
- GI50 [19]: 5.76 µM and 4.15 µM
- TGI [19]: > 10 µM and 27.5 µM
- GI50 [20]: > 10 µM and 8.5 µM
- TGI [20]: > 10 µM and 34.6 µM
- GI50 [21]: 1.72 µM and 11 µM
- TGI [21]: 3.52 µM and 26.5 µM
- GI50 [22]: 5.32 µM and 3.14 µM
- TGI [22]: > 10 µM and 19.1 µM
- TGI [23]: 2.46 µM and 15.5 µM
- GI50 [24]: 9.53 µM and 7.98 µM
- TGI [24]: > 10 µM and 23 µM
- GI50 [25]: 8.61 µM and 4.34 µM
- TGI [25]: > 10 µM and 18.9 µM
- GI50 [26]: 19.5 µM
- TGI [26]: 47.1 µM
- GI50 [27]: 1.66 µM and 3.75 µM
- TGI [27]: 3.22 µM and 16.9 µM
- GI50 [28]: 3.81 µM and 2.37 µM
- TGI [28]: > 10 µM and 9.14 µM
- GI50 [29]: 1.72 µM and 11.3 µM
- TGI [29]: 3.83 µM and 24.8 µM
- GI50 [30]: > 10 µM and 1.84 µM
- TGI [30]: > 10 µM and 8.66 µM
